Assay [1] deals with Recombinant human Cbl-b (aa 36-427) (Homo sapiens, UniProt Q13191). Kind of assay: Cbl-b Biochemical Assay (TR-FRET). To be noted: read-out: TR-FRET hCbl-b IC50.
In assay [2] the test system is Jurkat (clone E6-1) cells with NFAT luciferase reporter. Nature of the assay: Jurkat reporter assay (NFAT Luciferase). Format: cell-based. To be noted: Homo sapiens; Jurkat NFAT luciferase reporter cells, anti-CD3 stimulation, 6 hr; read-out: Jurkat NFAT EC50. In general terms: In a reporter assay the amount or activity of a reporter protein is the signal.
Assay [3] concerns the target T1, Recombinant human c-Cbl (aa 47-435) (Homo sapiens, UniProt P22681).
T1 sequence (P22681 47-435): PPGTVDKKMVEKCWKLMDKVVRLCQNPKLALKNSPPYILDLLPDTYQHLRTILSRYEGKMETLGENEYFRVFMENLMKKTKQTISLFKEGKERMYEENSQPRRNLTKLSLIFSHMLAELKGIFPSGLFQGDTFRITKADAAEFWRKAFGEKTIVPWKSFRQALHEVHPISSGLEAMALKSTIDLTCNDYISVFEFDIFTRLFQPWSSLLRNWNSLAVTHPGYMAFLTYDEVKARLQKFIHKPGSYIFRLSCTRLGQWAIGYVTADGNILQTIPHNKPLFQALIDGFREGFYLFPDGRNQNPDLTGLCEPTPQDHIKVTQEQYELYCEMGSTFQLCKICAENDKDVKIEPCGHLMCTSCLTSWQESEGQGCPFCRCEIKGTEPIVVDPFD
Kind of assay: c-Cbl Biochemical Assay (TR-FRET). To be noted: hc-Cbl Biochemical Assay (TR-FRET); read-out: TR-FRET hcCbl IC50. (In TR-FRET formats the signal depends on donor and acceptor labels being close together.)

Chain of Recombinant human Cbl-b (aa 36-427) (Q13191 36-427): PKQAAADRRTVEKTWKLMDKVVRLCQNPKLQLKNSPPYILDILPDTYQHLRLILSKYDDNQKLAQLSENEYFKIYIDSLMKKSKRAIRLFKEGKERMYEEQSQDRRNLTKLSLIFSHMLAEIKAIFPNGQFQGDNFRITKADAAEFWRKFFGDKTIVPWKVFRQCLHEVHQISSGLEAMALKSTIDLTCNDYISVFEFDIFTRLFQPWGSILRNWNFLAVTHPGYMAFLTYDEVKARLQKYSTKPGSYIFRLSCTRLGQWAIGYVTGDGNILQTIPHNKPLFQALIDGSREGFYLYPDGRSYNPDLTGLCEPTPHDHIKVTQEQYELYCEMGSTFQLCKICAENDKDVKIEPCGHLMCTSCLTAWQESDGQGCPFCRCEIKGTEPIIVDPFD

For `COCC(C)(C)NCc1cc(C)c2oc(-c3cc(-c4ccc(F)cc4-c4nncn4C)cc(C4CC4)n3)nc2c1` [AGJ-1, [(2-{6-Cyclopropyl-4-[4-fluoro-2-(4-methyl-1,2,4-triazol-3-yl)phenyl]pyridin-2-yl}-7-methyl-1,3-benzoxazol-5-yl)methyl](1-methoxy-2-methylpropan-2-yl)amine], the IC50 in assay [1] was under 200 nM; in assay [3] it was 1000 to 10000 nM. Further, the EC50 in assay [2] lay in the range of 200 to 1000 nM.

With `COC[C@H](C)NCc1cc(C)c2oc(-c3cc(-c4ccc(F)cc4-c4nncn4C)cc(C4CC4)n3)nc2c1` [AGK-1, [(2-{6-Cyclopropyl-4-[4-fluoro-2-(4-methyl-1,2,4-triazol-3-yl)phenyl]pyridin-2-yl}-7-methyl-1,3-benzoxazol-5-yl)methyl][(2S)-1-methoxypropan-2-yl]amine], the IC50 in assay [1] and in assay [3] was under 200 nM throughout. The EC50 in assay [2] was under 200 nM.

`COC[C@@H](C)NCc1cc(C)c2oc(-c3cc(-c4ccc(F)cc4-c4nncn4C)cc(C4CC4)n3)nc2c1` [AGL-1, [(2-{6-Cyclopropyl-4-[4-fluoro-2-(4-methyl-1,2,4-triazol-3-yl)phenyl]pyridin-2-yl}-7-methyl-1,3-benzoxazol-5-yl)methyl][(2R)-1-methoxypropan-2-yl]amine]: the figures for the IC50 in assay [1] and in assay [3] were under 200 nM and 200 to 1000 nM, respectively. The EC50 in assay [2] lay in the range of 200 to 1000 nM.

As to `COC(=O)C1(c2cc(F)c3oc(-c4cc(-c5ccc(F)cc5-c5nncn5C)cc(C5CC5)n4)nc3c2)CC1` [AGM-8, Methyl 1-(2-{6-cyclopropyl-4-[4-fluoro-2-(4-methyl-1,2,4-triazol-3-yl)phenyl]pyridin-2-yl}-7-fluoro-1,3-benzoxazol-5-yl) cyclopropane-1-carboxylate], the IC50 in assay [1] lay within 200 to 1000 nM; in assay [3] it was 1000 to 10000 nM. In addition, the EC50 in assay [2] lay in the range of 1000 to 10000 nM.

As for `Cn1cnnc1-c1cc(F)ccc1-c1cc(-c2nc3cc(C4(N)CC4)cc(F)c3o2)nc(C2CC2)c1` [AGN-3, 1-(2-{6-Cyclopropyl-4-[4-fluoro-2-(4-methyl-1,2,4-triazol-3-yl)phenyl]pyridin-2-yl}-7-fluoro-1,3-benzoxazol-5-yl) cyclopropan-1-amine], the figures for the IC50 in assay [1] and in assay [3] were under 200 nM and 200 to 1000 nM, respectively. In addition, the EC50 in assay [2] lay within 1000 to 10000 nM.

For the molecule `COC1(CNC2(c3cc(F)c4oc(-c5cc(-c6ccc(F)cc6-c6nncn6C)cc(C6CC6)n5)nc4c3)CC2)CCC1` [AGO-2, 1-(2-{6-Cyclopropyl-4-[4-fluoro-2-(4-methyl-1,2,4-triazol-3-yl)phenyl]pyridin-2-yl}-7-fluoro-1,3-benzoxazol-5-yl)-N-[(1-methoxycyclobutyl)methyl]cyclopropan-1-amine], the IC50 in assay [1] was under 200 nM; in assay [3] it was 200 to 1000 nM. Besides, the EC50 in assay [2] is 200 to 1000 nM.

With `Cc1c(F)c(CO)cc2nc(-c3cc(-c4ccc(F)cc4-c4nncn4C)cc(C4CC4)n3)oc12` [AGP-7, (2-{6-Cyclopropyl-4-[4-fluoro-2-(4-methyl-1,2,4-triazol-3-yl)phenyl]pyridin-2-yl}-6-fluoro-7-methyl-1,3-benzoxazol-5-yl)methanol], the IC50 in assay [1] lay in the range of 200 to 1000 nM; in assay [3], 1000 to 10000 nM. In addition, the EC50 in assay [2] lay within 1000 to 10000 nM.

Take `Cc1c(F)c(CN[C@@H]2CCC[C@@H]2O)cc2nc(-c3cc(-c4ccc(F)cc4-c4nncn4C)cc(C4CC4)n3)oc12` [AGQ-2, (1S,2R)-2-{[(2-{6-Cyclopropyl-4-[4-fluoro-2-(4-methyl-1,2,4-triazol-3-yl)phenyl]pyridin-2-yl}-6-fluoro-7-methyl-1,3-benzoxazol-5-yl)methyl]amino}cyclopentan-1-ol]: the IC50 in assay [1] and in assay [3] was under 200 nM throughout. The EC50 in assay [2] was under 200 nM.

On to `Cc1cc(C(C)(C)N)cc2nc(-c3cc(-c4ccc(F)cc4-c4nncn4C)cc(C4CC4)n3)oc12` [AGR-9, 2-(2-{6-Cyclopropyl-4-[4-fluoro-2-(4-methyl-1,2,4-triazol-3-yl)phenyl]pyridin-2-yl}-7-methyl-1,3-benzoxazol-5-yl)propan-2-amine], for which the values for the IC50 in assay [1] and in assay [3] were 200 to 1000 nM and 1000 to 10000 nM, respectively. Further, the EC50 in assay [2] is 1000 to 10000 nM.

Regarding `COC[C@H](C)NCc1cc(C)c2oc(-c3cccc(-c4ccc(F)cc4-c4nncn4C)c3)nc2c1` [AGS-4, ({2-[4′-Fluoro-2′-(4-methyl-1,2,4-triazol-3-yl)-[1,1′-biphenyl]-3-yl]-7-methyl-1,3-benzoxazol-5-yl}methyl)[(2S)-1-methoxypropan-2-yl]amine], the IC50 in assay [1] and in assay [3] was under 200 nM each time. In addition, the EC50 in assay [2] was under 200 nM.

Turning to `Cn1cnnc1-c1cc(F)ccc1-c1cc(-c2nc3cc(CNCC4CCC4)cc(F)c3o2)nc(C2CC2)c1` [AGT-1, (Cyclobutylmethyl)[(2-{6-cyclopropyl-4-[4-fluoro-2-(4-methyl-1,2,4-triazol-3-yl)phenyl]pyridin-2-yl}-7-fluoro-1,3-benzoxazol-5-yl)methyl]amine], the IC50 in assay [1] and in assay [3] was under 200 nM throughout. Moreover, the EC50 in assay [2] is under 200 nM.

Turning to `Cc1cc(C(C)NCC2CCC2)cc2nc(-c3cc(-c4ccc(F)cc4-c4nncn4C)cc(C4CC4)n3)oc12` (stereo not drawn) [AGU-1, (cyclobutylmethyl)[1-(2-{6-cyclopropyl-4-[4-fluoro-2-(4-methyl-1,2,4-triazol-3-yl)phenyl]pyridin-2-yl}-7-methyl-1,3-benzoxazol-5-yl)ethyl]amine], the IC50 in assay [1] and in assay [3] was under 200 nM throughout. Besides, in assay [2], the EC50 was under 200 nM.

As for `Cc1cc([C@H](C)NCC2CCC2)cc2nc(-c3cc(-c4ccc(F)cc4-c4nncn4C)cc(C4CC4)n3)oc12` [AGX-1, (cyclobutylmethyl)[(1S)-1-(2-{6-cyclopropyl-4-[4-fluoro-2-(4-methyl-1,2,4-triazol-3-yl)phenyl]pyridin-2-yl}-7-methyl-1,3-benzoxazol-5-yl)ethyl]amine], the IC50 in assay [1] and in assay [3] was under 200 nM each time. Also, the EC50 in assay [2] is under 200 nM.

Consider `Cc1cc([C@@H](C)NCC2CCC2)cc2nc(-c3cc(-c4ccc(F)cc4-c4nncn4C)cc(C4CC4)n3)oc12` [AGY-1, (cyclobutylmethyl)[(1R)-1-(2-{6-cyclopropyl-4-[4-fluoro-2-(4-methyl-1,2,4-triazol-3-yl)phenyl]pyridin-2-yl}-7-methyl-1,3-benzoxazol-5-yl)ethyl]amine], for which the IC50 in assay [1] and in assay [3] was under 200 nM in each case. Moreover, the EC50 in assay [2] was under 200 nM.

For the molecule `CCNCc1cc2nc(-c3cc(-c4ccc(F)cc4-c4nncn4C)cc(C4CC4)n3)oc2c(F)c1F` [AGZ-2, [(2-{6-cyclopropyl-4-[4-fluoro-2-(4-methyl-1,2,4-triazol-3-yl)phenyl]pyridin-2-yl}-6,7-difluoro-1,3-benzoxazol-5-yl)methyl](ethyl)amine], the figures for the IC50 in assay [1] and in assay [3] were under 200 nM and 200 to 1000 nM, respectively. For the same molecule, the EC50 in assay [2] was 200 to 1000 nM.

As for `Cn1cnnc1-c1cc(F)ccc1-c1cccc(-c2nc3cc(CNCC4(O)CC4)cc(C(F)(F)F)c3o2)c1` [AH-2, 1-((((2-(4′-Fluoro-2′-(4-methyl-4H-1,2,4-triazol-3-yl)-[1,1′-biphenyl]-3-yl)-7-(trifluoromethyl)benzo[d]oxazol-5-yl)methyl)amino)methyl)cyclopropan-1-ol], the values for the IC50 in assay [1] and in assay [3] were under 200 nM and 1000 to 10000 nM, respectively. For the same molecule, the EC50 in assay [2] fell in the range of 200 to 1000 nM.

Turning to `CNCc1cc2nc(-c3cc(-c4ccc(F)cc4-c4nncn4C)cc(C4CC4)n3)oc2c(F)c1F` [AHA-2, [(2-{6-cyclopropyl-4-[4-fluoro-2-(4-methyl-1,2,4-triazol-3-yl)phenyl]pyridin-2-yl}-6,7-difluoro-1,3-benzoxazol-5-yl)methyl](methyl)amine], the IC50 in assay [1] was under 200 nM; in assay [3], 200 to 1000 nM. The half-maximal effective concentration (EC50) in assay [2] lay within 1000 to 10000 nM.

Regarding `COCCNCc1cc(F)c2oc(-c3cc(-c4ccc(F)cc4-c4nncn4C)cc(C4CC4)n3)nc2c1` [AHB-1, [(2-{6-cyclopropyl-4-[4-fluoro-2-(4-methyl-1,2,4-triazol-3-yl)phenyl]pyridin-2-yl}-7-fluoro-1,3-benzoxazol-5-yl)methyl](2-methoxyethyl)amine], the IC50 in assay [1] and in assay [3] was under 200 nM each time. In addition, the EC50 in assay [2] was under 200 nM.

`COC(=O)c1cc(F)c2oc(-c3cc(-c4ccc(C#N)cc4-c4nncn4C)cc(C4CC4)n3)nc2c1` [AHC-1, methyl 2-{4-[4-cyano-2-(4-methyl-1,2,4-triazol-3-yl)phenyl]-6-cyclopropylpyridin-2-yl}-7-fluoro-1,3-benzoxazole-5-carboxylate]: the values for the IC50 in assay [1] and in assay [3] were 200 to 1000 nM and 1000 to 10000 nM, respectively. For the same molecule, the EC50 in assay [2] lay within 1000 to 10000 nM.

For `Cn1cnnc1-c1cc(C#N)ccc1-c1cc(-c2nc3cc(CO)cc(F)c3o2)nc(C2CC2)c1` [AHD-1, 4-{2-cyclopropyl-6-[7-fluoro-5-(hydroxymethyl)-1,3-benzoxazol-2-yl]pyridin-4-yl}-3-(4-methyl-1,2,4-triazol-3-yl) benzonitrile], the values for the IC50 in assay [1] and in assay [3] were 200 to 1000 nM and 1000 to 10000 nM, respectively. For the same molecule, in assay [2], the EC50 lay in the range of 1000 to 10000 nM.

What is called IC50 is the midpoint of a concentration-inhibition curve. In general, EC50 refers to the midpoint of the concentration-response curve.

The values above are taken from patent US20250163038A1, “CBL-B MODULATORS AND USES THEREOF” (Nimbus Clio, Inc., priority 2021, published 2025).
